For the assay, the target named is T1, main protease (M^pro) of SARS-CoV2 virus (Severe acute respiratory syndrome coronavirus 2, UniProt P0DTD1).
T1 construct: 30 μl of 3CL Protease enzyme solution (0.05 ng/ul) was mixed with 10 μl of peptides; purchased BPS Bioscience 78042-1
Kind of assay: biochemical.

The record followed here is patent publication US20240060986A1, “METHOD FOR SELECTING PEPTIDE […] ON PROTEIN CYTOTOXICITY” (priority 2022, published 2024).

No end group written: not given here.

In turn, PVHPQMQTETGTAHC [Peptide M14] displayed an IC50 of 1200 µM.

For the sequence RQDLDYQRRRGAGISSTLVQSRK [Peptide M3], the concentration for half-maximal inhibition (IC50) was 750 µM.

Broadly, the IC50 is the concentration that gives 50% inhibition. Low readings indicate greater potency in that assay, high ones weaker potency in that assay.
